Test results reported in ChEMBL document CHEMBL1124164, “Synthesis and estrogen receptor selectivity of 1,1-bis(4-hydroxyphenyl)-2-(p-halophenyl)ethylenes” (J Med Chem, 1988).

Legend:
Estrogen receptor [1] = biological target: T1, Estrogen receptor (Rattus norvegicus, UniProt P06211+Q62986); test: In vitro displacement of [3H]estradiol from estrogen receptor of rat uterine cystol; assay type: protein assay
Estrogen receptor [2] = biological target: T1, Estrogen receptor
Description: In vitro displacement of 3 nM [3H]4-hydroxytamoxifen from estrogen receptor of rat uterine cystol

[3] = biological target: T2, Estrogen receptor (Rattus norvegicus) (UniProt P06211+Q62986)
[4] = biological target: T2, Estrogen receptor (Rattus norvegicus); remark: listed apart in the source
Description: Specific binding to estrogen receptor in rat uterine cytosol(+/-SD)

[5] = biological target: T2, Estrogen receptor (Rattus norvegicus); remark: listed apart in the source
Description: Non specific binding to estrogen receptor in rat uterine cytosol(+/-SD)

Rattus norvegicus [6] = species on record: Rattus norvegicus; test: Relative recovery of 3H associated with compound from rat Intestinal contents; assay type: ADME, organism-based; details: in vivo
Rattus norvegicus [7] = test: Distribution of radiolabeled compound in intestinal contents of rat 1 hr after ip administration of dose and excess 8 microg of estradiol; fmol equivalents per 100 mg; assay type: ADME, organism-based; details: in vivo
Rattus norvegicus [8] = test: Distribution of radiolabeled compound in uterus of rat 4 hr after ip administration of dose; fmol equivalents per 100 mg; assay type: ADME, organism-based; details: in vivo
[9] = biological target: T2, Estrogen receptor (Rattus norvegicus); test: Ratio of specific binding to non-specific binding at rat estrogen receptor; assay type: protein assay
Rattus norvegicus [10] = test: Distribution of radiolabeled compound in plasma of rat 1 hr after ip administration of dose and excess 8 microg of estradiol; fmol equivalents per 100 mg; assay type: ADME, organism-based; details: in vivo
Rattus norvegicus [11] = species on record: Rattus norvegicus; test: Relative recovery of 3H associated with compound from rat uterus; assay type: ADME, organism-based; details: in vivo
Rattus norvegicus [12] = species on record: Rattus norvegicus; test: Effect of Beta Glucuronidase on recovery of 3H associated with compound from rat plasma; assay type: ADME, organism-based
Rattus norvegicus [13] = test: Distribution of radiolabeled compound in intestinal contents of rat 4 hr after ip administration of dose; fmol equivalents per 100 mg; assay type: ADME, organism-based; details: in vivo
Rattus norvegicus [14] = test: Distribution of radiolabeled compound in uterus of rat 1 hr after ip administration of dose and excess 8 microg of estradiol; fmol equivalents per 100 mg; assay type: ADME, organism-based; details: in vivo
Rattus norvegicus [15] = test: Distribution of radiolabeled compound in liver of rat 1 hr after iv administration of dose; fmol equivalents per 100 mg; assay type: ADME, organism-based; details: in vivo
Rattus norvegicus [16] = test: Distribution of radiolabeled compound in uterus of rat 1 hr after ip administration of dose; fmol equivalents per 100 mg; assay type: ADME, organism-based; details: in vivo
Rattus norvegicus [17] = species on record: Rattus norvegicus; test: Effect of Beta Glucuronidase on recovery of 3H associated with compound from rat uterus; assay type: ADME, organism-based; details: in vivo
Rattus norvegicus [18] = test: Distribution of radiolabeled compound in intestinal contents of rat 1 hr after ip administration of dose; fmol equivalents per 100 mg; assay type: ADME, organism-based; details: in vivo
Rattus norvegicus [19] = test: Distribution of radiolabeled compound in uterus of rat 1 hr after iv administration of dose; fmol equivalents per 100 mg; assay type: ADME, organism-based; details: in vivo
[20] = biological target: T2, Estrogen receptor (Rattus norvegicus); details: Uterus, Cytosol
Rattus norvegicus [21] = test: Distribution of radiolabeled compound in uterus of rat 8 hr after ip administration of dose; fmol equivalents per 100 mg; assay type: ADME, organism-based; details: in vivo
Rattus norvegicus [22] = species on record: Rattus norvegicus; test: Relative recovery of 3H associated with compound from rat plasma; assay type: ADME, organism-based
Rattus norvegicus [23] = species on record: Rattus norvegicus; test: Relative recovery of 3H associated with compound from rat liver; assay type: ADME, organism-based; details: in vivo
Rattus norvegicus [24] = species on record: Rattus norvegicus; test: Effect of Beta Glucuronidase on recovery of 3H associated with compound from rat liver; assay type: ADME, organism-based; details: in vivo
Rattus norvegicus [25] = test: Distribution of radiolabeled compound in intestinal contents of rat 1 hr after iv administration of dose; fmol equivalents per 100 mg; assay type: ADME, organism-based; details: in vivo
Rattus norvegicus [26] = test: Distribution of radiolabeled compound in intestinal contents of rat 8 hr after ip administration of dose; fmol equivalents per 100 mg; assay type: ADME, organism-based; details: in vivo
Rattus norvegicus [27] = species on record: Rattus norvegicus; test: Effect of Beta Glucuronidase on recovery of 3H associated with compound from rat intestinal contents; assay type: ADME, organism-based; details: in vivo
[28] = biological target: T2, Estrogen receptor (Rattus norvegicus); details: Uterus, Cytosol; remark: listed apart in the source
Description: Non specific binding to estrogen receptor in rat uterine cytosol using unlabeled ligand

Rattus norvegicus [29] = test: Distribution of radiolabeled compound in liver of rat 1 hr after ip administration of dose; fmol equivalents per 100 mg; assay type: ADME, organism-based; details: in vivo
Rattus norvegicus [30] = test: Distribution of radiolabeled compound in plasma of rat 8 hr after ip administration of dose; fmol equivalents per 100 mg; assay type: ADME, organism-based; details: in vivo
Rattus norvegicus [31] = test: Distribution of radiolabeled compound in liver of rat 4 hr after ip administration of dose; fmol equivalents per 100 mg; assay type: ADME, organism-based; details: in vivo
Rattus norvegicus [32] = test: Distribution of radiolabeled compound in plasma of rat 4 hr after ip administration of dose; fmol equivalents per 100 mg; assay type: ADME, organism-based; details: in vivo
Rattus norvegicus [33] = test: Distribution of radiolabeled compound in plasma of rat 1 hr after iv administration of dose; fmol equivalents per 100 mg; assay type: ADME, organism-based; details: in vivo
Rattus norvegicus [34] = test: Distribution of radiolabeled compound in plasma of rat 1 hr after ip administration of dose; assay type: ADME, organism-based; details: in vivo
Rattus norvegicus [35] = test: Distribution of radiolabeled compound in liver of rat 8 hr after ip administration of dose; fmol equivalents per 100 mg; assay type: ADME, organism-based; details: in vivo
Rattus norvegicus [36] = test: Distribution of radiolabeled compound in liver of rat 1 hr after ip administration of dose and excess 8 microg of estradiol; fmol equivalents per 100 mg; assay type: ADME, organism-based; details: in vivo

Oc1ccc(C(=Cc2ccccc2)c2ccc(O)cc2)cc1
EC50 (Estrogen receptor [1]): 3.2 nM

CCC(=C(c1ccc(O)cc1)c1ccc(OCCN(C)C)cc1)c1ccccc1
EC50 (Estrogen receptor [2]): 6 nM | S/N [3]: 2.3 | Binding [4]: 1080 fM uterus-1 | Binding [5]: 475 fM uterus-1

Oc1ccc(C(=Cc2ccc(F)cc2)c2ccc(O)cc2)cc1
Recovery (Rattus norvegicus [6]): 5.3% | Distribution (Rattus norvegicus [7]): 880 fM/mg | Distribution (Rattus norvegicus [8]): 196 fM/mg | S/N [9]: 3.2 | Distribution (Rattus norvegicus [10]): 198 fM/mg | Recovery (Rattus norvegicus [11]): 84.5% | Recovery (Rattus norvegicus [12]): 92.1% | Distribution (Rattus norvegicus [13]): 834 fM/mg | EC50 (Estrogen receptor [2]): 170 nM | Distribution (Rattus norvegicus [14]): 302 fM/mg | Distribution (Rattus norvegicus [15]): 318 fM/mg | Distribution (Rattus norvegicus [16]): 496 fM/mg | Recovery (Rattus norvegicus [17]): 95.9% | Distribution (Rattus norvegicus [18]): 2360 fM/mg | Distribution (Rattus norvegicus [19]): 429 fM/mg | Binding [20]: 971 fM uterus-1 | Distribution (Rattus norvegicus [21]): 87 fM/mg | Recovery (Rattus norvegicus [22]): 28.7% | Recovery (Rattus norvegicus [23]): 15.7% | Recovery (Rattus norvegicus [24]): 75.9% | EC50 (Estrogen receptor [1]): 2.9 nM | Distribution (Rattus norvegicus [25]): 3269 fM/mg | Distribution (Rattus norvegicus [26]): 665 fM/mg | Recovery (Rattus norvegicus [27]): 95.4% | Binding [28]: 305 fM uterus-1 | Distribution (Rattus norvegicus [29]): 251 fM/mg | Distribution (Rattus norvegicus [30]): 46 fM/mg | Distribution (Rattus norvegicus [31]): 97 fM/mg | Distribution (Rattus norvegicus [32]): 56 fM/mg | Distribution (Rattus norvegicus [33]): 144 fM/mg | Distribution (Rattus norvegicus [34]): 122 fM/mg | Distribution (Rattus norvegicus [35]): 61 fM/mg | Distribution (Rattus norvegicus [36]): 373 fM/mg

Oc1ccc(C(=Cc2ccc(Br)cc2)c2ccc(O)cc2)cc1
EC50 (Estrogen receptor [1]): 10.4 nM

Oc1ccc(C(=Cc2ccc(I)cc2)c2ccc(O)cc2)cc1
EC50 (Estrogen receptor [2]): 9.5 nM | EC50 (Estrogen receptor [1]): 3.3 nM

Oc1ccc(C(=C(Cl)c2ccccc2)c2ccc(O)cc2)cc1
EC50 (Estrogen receptor [1]): 4.5 nM
